Measured values as given in ChEMBL document CHEMBL5380875, “Discovery of a Potent and Oral Available Complex I OXPHOS Inhibitor That Abrogates Tumor Growth and Circumvents MEKi Resistance” (J Med Chem, 2023).
Active and inactive are the calls of the source. No cut-off for these calls is given here.

Assays:
A549 [1] = assay: Inhibition of mitochondrial respiration in human Trametinib-resistant A549 cell assessed as reduction in spare oxygen consumption rate capacity at 50 to 200 nM incubated for 12 hrs by seahorse XF96 flux analyzer; type: functional, cell-based; details: dose 50-200 nM
NCI-H441 [2] = assay: Antiproliferative activity against human NCI-H441 cells with high-OXPHOS assessed as reduction in cell viability incubated for 5 days by CellTiter 96 cell proliferation assay; type: functional, cell-based; details: NCI-H441, 120 h
NCI-H460 [3] = assay: Induction of apoptosis in human NCI-H460 cells with high-OXPHOS harboring KRAS Q61H mutant assessed as late apoptotic cells at 20 nM incubated for 72 hrs by Annexin V-FITC/propidium iodide staining based flow cytometry analysis (reference value: 5.68%); type: functional
[4] = Oral bioavailability in ICR mouse at 10 mg/kg measured for 24 hrs by LC-MS/MS analysis; type: ADME, organism-based; details: in vivo
[5] = Cmax in ICR mouse at 1 mg/kg, iv measured for 24 hrs by LC-MS/MS analysis; type: ADME, organism-based; parameters: dose 1 mg/kg, time 24 hrs, route iv; details: in vivo
NCI-H460 [6] = assay: Inhibition of colony formation in human NCI-H460 cells with high-OXPHOS incubated for 7 days by crystal violet staining based analysis; type: functional, cell-based; details: dose 250-1000 nM, time 7.0 day
[7] = AUC (0 to infinity) in ICR mouse at 1 mg/kg, iv measured for 24 hrs by LC-MS/MS analysis; type: ADME, organism-based; parameters: dose 1 mg/kg, time 24 hrs, route iv; details: in vivo
NCI-H460 [8] = assay: Antitumor activity against human NCI-H460 cells with high-OXPHOS xenografted in mouse assessed as tumor growth inhibition at 30 mg/kg, po bid administered for 18 days and measured every 3 days by electronic caliper analysis; type: functional, organism-based; details: time 18.0 day
NCI-H460 [9] = assay: Potentiation of trametinib-induced cytotoxicity against human NCI-H460 cells with high-OXPHOS harboring KRAS Q61H mutant assessed as reduction in cell viability at 10 to 20 uM incubated for 72 hrs by CellTiter 96 cell proliferation assay; type: functional, cell-based; details: dose 10-20 µM
Cytochrome P450 3A4 = Cytochrome P450 3A4 (Homo sapiens, UniProt P08684); assay: Inhibition of CYP3A4 in human liver microsomes using midazolam as substrate; type: ADME, Microsome
Sequence of Cytochrome P450 3A4 (P08684 whole entry): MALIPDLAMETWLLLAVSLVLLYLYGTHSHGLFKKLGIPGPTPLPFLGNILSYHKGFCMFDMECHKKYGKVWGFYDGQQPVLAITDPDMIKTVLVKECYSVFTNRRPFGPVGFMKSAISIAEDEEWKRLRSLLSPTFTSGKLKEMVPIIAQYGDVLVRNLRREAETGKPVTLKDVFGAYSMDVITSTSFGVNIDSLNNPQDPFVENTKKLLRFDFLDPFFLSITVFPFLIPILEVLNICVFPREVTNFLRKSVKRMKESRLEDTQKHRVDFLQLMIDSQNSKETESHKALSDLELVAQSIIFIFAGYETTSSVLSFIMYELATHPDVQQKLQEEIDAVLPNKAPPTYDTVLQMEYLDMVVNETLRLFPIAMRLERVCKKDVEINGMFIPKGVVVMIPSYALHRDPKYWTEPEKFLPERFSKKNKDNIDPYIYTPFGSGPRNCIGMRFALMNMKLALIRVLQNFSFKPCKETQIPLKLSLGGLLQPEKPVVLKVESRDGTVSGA

[10] = Cmax in ICR mouse at 10 mg/kg, po measured for 24 hrs by LC-MS/MS analysis; type: ADME, organism-based; parameters: time 24 hrs, dose 10 mg/kg, route po; details: in vivo
Cytochrome P450 2D6 = Cytochrome P450 2D6 (Homo sapiens, UniProt P10635); assay: Inhibition of CYP2D6 in human liver microsomes; type: ADME, Microsome
Sequence of Cytochrome P450 2D6 (P10635 whole entry): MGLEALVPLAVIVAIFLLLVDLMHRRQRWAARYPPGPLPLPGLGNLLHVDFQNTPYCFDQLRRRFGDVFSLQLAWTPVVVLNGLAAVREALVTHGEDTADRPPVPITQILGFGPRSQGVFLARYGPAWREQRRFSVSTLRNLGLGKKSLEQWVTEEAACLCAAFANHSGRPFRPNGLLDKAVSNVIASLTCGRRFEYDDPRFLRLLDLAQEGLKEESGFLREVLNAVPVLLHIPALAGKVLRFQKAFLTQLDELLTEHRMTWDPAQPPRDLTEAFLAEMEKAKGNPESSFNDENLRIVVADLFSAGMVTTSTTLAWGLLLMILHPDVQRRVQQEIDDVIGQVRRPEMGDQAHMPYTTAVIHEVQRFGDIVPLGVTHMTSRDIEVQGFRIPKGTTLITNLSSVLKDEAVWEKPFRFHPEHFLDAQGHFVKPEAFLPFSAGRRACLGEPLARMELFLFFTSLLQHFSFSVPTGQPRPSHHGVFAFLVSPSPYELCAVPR

A549 [11] = assay: Inhibition of colony formation in human Trametinib-resistant A549 cells with high-OXPHOS incubated for 7 days by crystal violet staining based analysis; type: functional, cell-based; details: dose 25-100 nM, time 7.0 day
[12] = Toxicity in mouse xenografted with human NCI-H460 cells with high-OXPHOS assessed as pathological changes in spleen at 30 mg/kg, po bid administered for 18 days by H and E staining based analysis; type: organism-based; details: in vivo, 432 h, time 18 day
[13] = Half life in ICR mouse at 10 mg/kg, po measured for 24 hrs by LC-MS/MS analysis; type: ADME, organism-based; details: in vivo
NCI-H460 [14] = assay: Inhibition of mitochondrial complex III in human NCI-H460 cells at 1 uM incubated for 12 hrs by seahorse XF96 metabolic flux analyzer relative to control; type: cell-based
NCI-H441 [15] = assay: Inhibition of colony formation in human NCI-H441 cells with high-OXPHOS harboring KRAS G12V mutant incubated for 10 to 14 days in presence of trametinib by crystal violet staining based analysis; type: functional, cell-based; details: time 10-14 day
[16] = Clearance in ICR mouse at 1 mg/kg, iv measured for 24 hrs by LC-MS/MS analysis; type: ADME, organism-based; details: in vivo
[17] = Toxicity in mouse xenografted with human NCI-H460 cells with high-OXPHOS assessed as reduction in serum ALT level at 30 mg/kg, po bid administered for 18 days; type: organism-based; details: in vivo, 432 h, time 18 day
Cytochrome P450 1A2 = biological target: T1, Cytochrome P450 1A2 (Homo sapiens, UniProt P05177); assay: Inhibition of CYP1A2 in human liver microsomes; type: ADME, Microsome
T1 sequence (P05177 whole entry): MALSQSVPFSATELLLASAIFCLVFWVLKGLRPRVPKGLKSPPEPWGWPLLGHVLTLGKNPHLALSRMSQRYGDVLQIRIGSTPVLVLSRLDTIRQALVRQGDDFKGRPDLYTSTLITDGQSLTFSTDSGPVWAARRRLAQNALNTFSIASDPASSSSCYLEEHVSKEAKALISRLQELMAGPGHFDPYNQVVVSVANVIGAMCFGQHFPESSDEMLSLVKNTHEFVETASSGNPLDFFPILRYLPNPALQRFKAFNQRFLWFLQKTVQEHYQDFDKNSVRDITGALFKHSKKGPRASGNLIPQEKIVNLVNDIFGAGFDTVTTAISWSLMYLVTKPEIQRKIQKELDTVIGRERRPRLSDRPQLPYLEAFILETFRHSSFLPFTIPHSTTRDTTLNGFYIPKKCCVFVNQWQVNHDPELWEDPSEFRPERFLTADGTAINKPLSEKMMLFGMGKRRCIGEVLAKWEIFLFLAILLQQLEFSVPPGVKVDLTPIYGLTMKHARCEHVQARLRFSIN

NCI-H460 [18] = assay: Inhibition of mitochondrial complex I NADH-ubiquinone oxidoreductase in human NCI-H460 cells assessed as reduction in NAD+/NADH ratio at 1 uM incubated for 12 hrs by WST-8 method relative to control; type: cell-based
[19] = Toxicity in mouse xenografted with human NCI-H460 cells with high-OXPHOS assessed as pathological changes in lung at 30 mg/kg, po bid administered for 18 days by H and E staining based analysis; type: organism-based; details: in vivo, 432 h, time 18 day
A549 [20] = assay: Induction of apoptosis in human Trametinib-resistant A549 cells with high-OXPHOS harboring KRAS G12S mutant assessed as early apoptotic cells at 20 nM incubated for 72 hrs by Annexin V-FITC/propidium iodide staining based flow cytometry analysis (reference value: 4.31%); type: functional
A549 [21] = assay: Induction of apoptosis in human Trametinib-resistant A549 cells with high-OXPHOS harboring KRAS G12S mutant assessed as early apoptotic cells at 20 nM incubated for 72 hrs in presence of trametinib by Annexin V-FITC/propidium iodide staining based flow cytometry analysis (reference value: 4.31%); type: functional
NCI-H460 [22] = assay: Antitumor activity against human NCI-H460 cells with high-OXPHOS xenografted in mouse assessed as reduction in Ki67 expression at 30 mg/kg, po bid administered for 18 days in presence of trametinib by immunohistochemical analysis; type: functional, organism-based; details: time 18.0 day
[23] = Half life in ICR mouse at 1 mg/kg, iv measured for 24 hrs by LC-MS/MS analysis; type: ADME, organism-based; details: in vivo
NCI-H460 [24] = assay: Inhibition of mitochondrial respiration in human NCI-H460 cells with high-OXPHOS assessed as reduction in basal oxygen consumption rate incubated for 12 hrs by seahorse XF96 flux analyzer; type: functional, cell-based; details: dose 50-200 nM
A549 [25] = assay: Antiproliferative activity against human Trametinib-resistant A549 cells with high-OXPHOS assessed as reduction in cell viability incubated for 5 days by CellTiter 96 cell proliferation assay; type: functional, cell-based; details: A549, 120 h
[26] = AUC (0 to 24 hrs) in ICR mouse at 10 mg/kg, po measured for 24 hrs by LC-MS/MS analysis; type: ADME, organism-based; parameters: time 24 hrs, dose 10 mg/kg, route po; details: in vivo
[27] = AUC (0 to 24 hrs) in ICR mouse at 1 mg/kg, iv measured for 24 hrs by LC-MS/MS analysis; type: ADME, organism-based; parameters: time 24 hrs, dose 1 mg/kg, route iv; details: in vivo

SMILES: Cc1c(C(=O)N2CCN(Cc3ccc(OCC(F)(F)F)cc3)CC2)nnn1Cc1ccc(C(=O)Nc2ccc(C(F)(F)F)cc2)nc1
- inhibition (A549 [1]): Active
- IC50 (NCI-H441 [2]): 0.0297 µM
- Activity (NCI-H460 [3]): 16.2%
- bioavailability [4]: 64.3%
- Cmax [5]: 0.425 µg/mL
- inhibition (NCI-H460 [6]): Dose-Dependent Effect
- AUC(0-inf) [7]: 0.359 µg·h/mL
- inhibition (NCI-H460 [8]): Active
- Activity (NCI-H460 [9]): Active
- IC50 (Cytochrome P450 3A4): > 50 µM
- Cmax [10]: 0.618 µg/mL
- IC50 (Cytochrome P450 2D6): > 50 µM
- inhibition (A549 [11]): Dose-Dependent Effect
- Activity [12]: Non-Toxic
- half-life [13]: 2.5 h
- inhibition (NCI-H460 [14]): 28.1%
- inhibition (NCI-H441 [15]): Active
- clearance [16]: 2.79 L/h/kg
- Activity [17]: Non-Toxic
- IC50 (Cytochrome P450 1A2): > 50 µM
- inhibition (NCI-H460 [18]): 87.5%
- Activity [19]: Non-Toxic
- Activity (A549 [20]): 8.57%
- Activity (A549 [21]): 31%
- Activity (NCI-H460 [22]): Active
- half-life [23]: 2.3 h
- inhibition (NCI-H460 [24]): Dose-Dependent Effect
- IC50 (A549 [25]): 0.0151 µM
- AUC(0-t) at 24 h [26]: 2.17 µg·h/mL
- AUC(0-t) at 24 h [27]: 0.337 µg·h/mL
